Experimental data published in ChEMBL document CHEMBL1122266, “Ring-substituted 1,2-dialkylated 1,2-bis(hydroxyphenyl)ethanes. 1. Synthesis and estrogen receptor binding affinity of 2,2'- and 3,3'-disubstituted hexestrols” (J Med Chem, 1983).
Values joined by “and” are separate entries in the source; they are usually repeats but may differ in a detail not shown here. Equal entries are not always repeated.

Tests used:
[1] = target: T1, Estrogen receptor (Mus musculus) (UniProt O08537+P19785); test: Estrogenic activity in uterotrophic assay in mice at 10 ug/day; type: functional
[2] = target: T1, Estrogen receptor (Mus musculus); test: Estrogenic activity in uterotrophic assay in mice at 1000 ug/day; type: functional
[3] = target: T1, Estrogen receptor (Mus musculus); test: Estrogenic activity in uterotrophic assay in mice at 100 ug/day; type: functional
[4] = target: Estrogen receptor (Bos taurus) (UniProt Q9XSB5+P49884); test: Relative binding affinity for calf uterine estrogen receptor by 17-beta-[3H]-estradiol competition.; type: protein assay
[5] = target: T1, Estrogen receptor (Mus musculus); test: Estrogenic activity in uterotrophic assay in mice at 1 ug/day; type: functional
[6] = target: T1, Estrogen receptor (Mus musculus); test: Estrogenic activity in uterotrophic assay in mice at 0 ug/day; type: functional
[7] = target: T1, Estrogen receptor (Mus musculus); test: Estrogenic activity in uterotrophic assay in mice at 0.4 ug/day with estrone; type: functional
[8] = target: T1, Estrogen receptor (Mus musculus); test: Anti-uterotrophic activity in mice at 25 ug/day
[9] = target: T1, Estrogen receptor (Mus musculus); test: Inhibition of anti-uterotrophic activity in mice at 250 ug/day (%inhibition=100-(E S,T-EV)x100); type: functional
[10] = target: T1, Estrogen receptor (Mus musculus); test: Anti-uterotrophic activity in mice at 100 ug/day; type: functional
[11] = target: T1, Estrogen receptor (Mus musculus); test: Anti-uterotrophic activity in mice at 250 ug/day; type: functional
[12] = target: T1, Estrogen receptor (Mus musculus); test: Estrogenic activity in uterotrophic assay in mice at 250 ug/day; type: functional
[13] = target: T1, Estrogen receptor (Mus musculus); test: Inhibition of anti-uterotrophic activity in mice at 5 ug/day (%inhibition=100-(E S,T-EV)x100); type: functional
[14] = target: T1, Estrogen receptor (Mus musculus); test: Estrogenic activity in uterotrophic assay in mice at 50 ug/day; type: functional
[15] = target: T1, Estrogen receptor (Mus musculus); test: Estrogenic activity in uterotrophic assay in mice at 500 ug/day
[16] = target: T1, Estrogen receptor (Mus musculus); test: Estrogenic activity in uterotrophic assay in mice at 2 ug/day; type: functional
[17] = target: T1, Estrogen receptor (Mus musculus); test: Inhibition of anti-uterotrophic activity in mice at 25 ug/day (%inhibition=100-(E S,T-EV)x100); type: functional
[18] = target: T1, Estrogen receptor (Mus musculus); test: Anti-uterotrophic activity in mice at 5 ug/day; type: functional
[19] = target: T1, Estrogen receptor (Mus musculus); test: Inhibition of anti-uterotrophic activity in mice at 100 ug/day (%inhibition=100-(E S,T-EV)x100); type: functional
[20] = target: T1, Estrogen receptor (Mus musculus); test: Anti-uterotrophic activity in mice at 0 ug/day; type: functional

T1 sequence (O08537 whole entry, looked up): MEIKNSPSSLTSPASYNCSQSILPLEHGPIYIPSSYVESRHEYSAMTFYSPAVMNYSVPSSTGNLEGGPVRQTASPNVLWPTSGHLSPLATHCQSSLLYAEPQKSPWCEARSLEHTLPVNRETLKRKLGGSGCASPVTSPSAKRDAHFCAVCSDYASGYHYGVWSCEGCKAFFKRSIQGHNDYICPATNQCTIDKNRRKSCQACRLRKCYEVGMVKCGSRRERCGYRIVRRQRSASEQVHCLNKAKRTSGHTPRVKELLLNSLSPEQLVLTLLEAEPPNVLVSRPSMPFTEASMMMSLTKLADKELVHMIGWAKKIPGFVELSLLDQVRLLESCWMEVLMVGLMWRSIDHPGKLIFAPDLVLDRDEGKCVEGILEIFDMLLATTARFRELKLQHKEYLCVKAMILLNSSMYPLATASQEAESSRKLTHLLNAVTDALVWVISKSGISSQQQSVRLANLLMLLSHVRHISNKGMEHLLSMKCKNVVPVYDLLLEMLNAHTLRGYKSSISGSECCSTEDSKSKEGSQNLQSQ
T1 sequence (P19785 whole entry, looked up): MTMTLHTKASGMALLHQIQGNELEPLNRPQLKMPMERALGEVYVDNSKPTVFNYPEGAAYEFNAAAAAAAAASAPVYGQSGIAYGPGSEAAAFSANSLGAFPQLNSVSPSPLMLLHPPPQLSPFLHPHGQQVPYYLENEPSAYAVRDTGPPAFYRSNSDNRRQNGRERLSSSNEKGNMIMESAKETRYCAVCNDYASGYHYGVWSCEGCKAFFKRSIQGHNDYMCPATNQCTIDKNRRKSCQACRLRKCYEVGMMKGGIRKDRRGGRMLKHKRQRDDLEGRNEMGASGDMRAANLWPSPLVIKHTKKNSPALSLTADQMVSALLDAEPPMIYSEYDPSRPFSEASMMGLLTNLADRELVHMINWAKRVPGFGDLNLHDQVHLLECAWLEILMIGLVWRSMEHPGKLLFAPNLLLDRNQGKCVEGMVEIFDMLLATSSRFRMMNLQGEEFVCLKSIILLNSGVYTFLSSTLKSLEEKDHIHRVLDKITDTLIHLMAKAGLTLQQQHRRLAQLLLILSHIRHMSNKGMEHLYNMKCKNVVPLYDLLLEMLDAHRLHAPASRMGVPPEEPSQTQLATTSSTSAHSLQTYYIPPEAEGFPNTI

Compound	Effect [1] [mg 100g-1]	relative binding affinity (RBA) [4]	Effect [6] [mg 100g-1]	Effect [7]	also measured
CCC(c1ccc(O)cc1C)C(CC)c1ccc(O)cc1C (stereo not given)	36.6	8.5	16.9	43.9 mg 100g-1	Effect [2]: 32.6 mg 100g-1; Effect [3]: 38.4 mg 100g-1; Effect [5]: 46.3 mg 100g-1
CCC(c1ccc(O)c(CO)c1)C(CC)c1ccc(O)c(CO)c1 (stereo not given)		0.71			
CC[C@H](c1ccc(O)cc1)[C@@H](CC)c1ccc(O)cc1		27			
CCC(c1ccc(O)c(N(C)C)c1)C(CC)c1ccc(O)c(N(C)C)c1 (stereo not given)		< 0.01			
CCC(c1ccc(O)c(C)c1)C(CC)c1ccc(O)c(C)c1 (stereo not given)	40	8.1	10	44.9 mg 100g-1	Effect [2]: 34 mg 100g-1; Effect [3]: 33.8 mg 100g-1; Effect [5]: 48.7 mg 100g-1
CCc1cc(C(CC)C(CC)c2ccc(O)c(CC)c2)ccc1O (stereo not given)		1.2			
CCC(c1ccc(O)c(I)c1)C(CC)c1ccc(O)c(I)c1 (stereo not given)		0.17			
CCc1cc(O)ccc1C(CC)C(CC)c1ccc(O)cc1CC (stereo not given)		3.7			
CCC(c1ccc(O)cc1Cl)C(CC)c1ccc(O)cc1Cl (stereo not given)		2.2			
CCC(c1ccc(O)cc1F)C(CC)c1ccc(O)cc1F (stereo not given)	39	6.5	16.9	43.9 mg 100g-1	Effect [2]: 30.5 mg 100g-1; Effect [3]: 34.3 mg 100g-1; Effect [5]: 47.6 mg 100g-1
CCC(c1ccc(O)c(Br)c1)C(CC)c1ccc(O)c(Br)c1 (stereo not given)		0.25			
CCC(c1ccc(O)c(Cl)c1)C(CC)c1ccc(O)c(Cl)c1 (stereo not given)		1.6			
CCC(c1ccc(O)cc1O)C(CC)c1ccc(O)cc1O (stereo not given)	41.6	32	16.4	51.4 mg 100g-1	Effect [5]: 53.6 mg 100g-1
CCC(c1ccc(O)c(N)c1)C(CC)c1ccc(O)c(N)c1 (stereo not given)	24.3	5.6	16.9	50.4 mg/100 g	Effect [8]: 34.6 mg 100g-1; Effect [20]: 50.4 mg 100g-1 and 19.4 mg 100g-1; inhibition [13]: 78%; Effect [2]: 45.6 mg 100g-1; Effect [3]: 44.7 mg/100 g; Effect [5]: 23.3 mg 100g-1; inhibition [17]: 0%

Further lines, with some results ahead:

Effect [1] [mg 100g-1]	relative binding affinity (RBA) [4]	Effect [6] [mg 100g-1]	Effect [7]	Compound	also measured
	0.04			CCC(c1ccc(O)c(CN(C)C)c1)C(CC)c1ccc(O)c(CN(C)C)c1 (stereo not given)	
	1.8			CCC(c1ccc(O)cc1Br)C(CC)c1ccc(O)cc1Br (stereo not given)	
	< 0.01			CCC(c1ccc(O)c(C(C)=O)c1)C(CC)c1ccc(O)c(C(C)=O)c1 (stereo not given)	
	0.55			CCC(c1ccc(O)c(COC)c1)C(CC)c1ccc(O)c(COC)c1 (stereo not given)	
	0.14			CCC(c1ccc(O)c([N+](=O)[O-])c1)C(CC)c1ccc(O)c([N+](=O)[O-])c1 (stereo not given)	
34.7	20	15.4	54.3 mg 100g-1	CCC(c1ccc(O)c(O)c1)C(CC)c1ccc(O)c(O)c1 (stereo not given)	Effect [8]: 37 mg 100g-1; inhibition [9]: 0%; Effect [10]: 39.2 mg 100g-1; Effect [11]: 43.6 mg 100g-1; Effect [12]: 50.1 mg 100g-1; inhibition [13]: 59%; Effect [14]: 39.1 mg 100g-1; Effect [15]: 49.8 mg 100g-1; Effect [16]: 24.6 mg 100g-1; inhibition [17]: 20%; Effect [18]: 24.1 mg 100g-1; inhibition [19]: 13%
	0.18			CCOCc1cc(C(CC)C(CC)c2ccc(O)c(COCC)c2)ccc1O (stereo not given)	
43.4	16	10	44.9 mg 100g-1	CCC(c1ccc(O)c(F)c1)C(CC)c1ccc(O)c(F)c1 (stereo not given)	Effect [2]: 38.8 mg 100g-1; Effect [3]: 40.4 mg 100g-1; Effect [5]: 50.7 mg 100g-1
